Reference: patent publication US5744621A, “Irreversible HIV protease inhibitors, intermediates, compositions and processes for the preparation thereof” (Lucky Limited., priority 1992, dated 1998)
Like-named read-outs stand apart in the source and are kept apart here.

Tests used:
HIV-1 protease = target: T1, HIV-1 protease (Human immunodeficiency virus type 1 group M subtype B, UniProt P04585); experiment: Assay for inhibitory effect on HIV protease (residual enzyme activity, HPLC of substrate cleavage); assay type: biochemical
T1 construct: 2.6 nM of HIV-1 protease
Procedure: The inhibitory effect on HIV protease of the compounds of the present invention was determined by the following method.
To a buffer solution comprising 50 mM sodium acetate, pH 5.5, 1 mM dithiothreitol(DTT), 1 mM ethylenediaminetetraacetate (EDTA), 0.75M ammonium sulfate, 0.2M sodium chloride and 0.1% NP40(NONIDET P-40; Sigma Chemical Co., U.S.A.), were added various concentrations of a compound selected from Compound Nos. 1 to 92 to prepare a preincubation solution. Inhibition reaction was started with the addition of 2.6 nM of HIV-1 protease to the preincubation solution. Each 10 μl of the reaction solution was taken at a given time interval and added to 80 μl of assay solution containing 100 μM of reaction substrate in the same buffer solution as above to assay for the residual enzyme activity. In this context, an oligopeptide(KM =20 μM) consisting of 11 amino acids, i.e., Ser-Ile-Ala-Glu-(p-NO2)-Phe-Leu-Val-Arg-Ala-Lys-His, was used as a reaction substrate, which oligopeptide was to be cleaved in two by the breakage of amide bond between (P--NO2)-Phe and Leu upon the attack of HIV protease. The reaction rate was determined by subjecting the substrate before the reaction and the product after the reaction to HPLC separation and then measuring the relative amount of the product, using the strong absorbance of (p--NO2)-Phe at 280 nm. The amount of reduction in enzyme activity according to the elapsed time were measured and the natural logarithmic values(ln) of the measured amounts were plotted against time to obtain a linear graph and kobs was calculated from the slope of the linear graph.
The inhibition constant was calculated according to the following equation: [formula] wherein: kobs is a rate constant indicating the rate of reduction in enzyme activity according to the elapsed time under the presence of a given concentration of inhibitor,
kina is a rate constant indicating the rate of chemical reaction forming covalent bond between an enzyme and an inhibitor in Michaelis-Menten complex,
KI is an inhibition constant indicating the dissociation rate of Michaelis-Menten complex into an enzyme and an inhibitor, and
[I] means the inhibitor concentration.
The above equation is applicable to an experiment carried out under the condition in which the concentration of inhibitor is far higher than that of enzyme(Steady State Kinetic). […] The inhibition constants KI and kina and second order rate constant kina /KI were obtained by inputting the value of [E]/([E]+[EI]+[EI']) into KINSIM/FITSIM program. FIG. 1 exemplifies a result of the experiment determining the binding ratio of enzymes and inhibitors, which result was obtained by reacting the enzyme and the inhibitor in various concentration ratios for a sufficient time period(at least for 30 minutes), and then plotting the relative activity of the remaining enzyme against [conc. of inhibitor]/[conc. of enzyme].

HIV-1 = experiment: Anti-viral activity: syncytium formation (Sup T1) or reverse transcriptase assay (H9); assay type: cell-based; conditions: Human immunodeficiency virus 1, SUP-T1
Procedure: The anti-viral activity of the compounds of the present invention was determined by measuring the concentration of the compounds that inhibits the proliferation of HIV by 50%(IC50) through a survey for syncytium formation or reverse transcriptase assay.
1×10^5 cells of each of H9(ATCC HTB 176) and Sup T1 cell lines were added to the wells of a 24-well microtiter plate and various concentrations so the compounds of the present invention were added thereto. 200 TCID50 (200-fold of 50% tissue culture infection dose) of HIV-1 inoculum and rpmi-1640 medium(Sigma Chemical Co., U.S.A) were added successively to the wells and the plate was incubated at 37° C. In case of Sup T1, the number of syncytium formed was investigated after 3 to 9 days. IC50 of each compound was determined by measuring the concentration of inhibitor that can reduce the number of syncytium by 50% compared with those formed in the same condition without the inhibitor.
In case of H9, three-quarters(3/4) of the culture medium in volume was refreshed every 3 days; and 6 ml of the culture fluid was centrifuged at 1000 rpm for 10 minutes. To 5 ml of the resulting supernatant were added 2.5 ml of 30% polyethyleneglycol(PEG, M.W. 6000-8000) and 0.4M NaCl. The resulting solution was allowed to stand at 0° C. overnight to precipitate virus particles. The solution was centrifuged at 2000 rpm for 45 minutes, the supernatant was discarded therefrom and the precipitate was diluted with 20 μl of a reverse transcriptase suspension buffer(50 mM tris-HCl, pH 7.5, 1 mM dithiothreitol, 20% glycerol, 0.25M KCl and 0.25% Triton X-100). The resulting suspension was stored in an Effendorf tube at -70° C. until used. A procedure of freezing said virus suspension for 2 minutes in dry ice and thawing same at 37° C. for 2 minutes was repeated three times and the resulting suspension was centrifuged at 4° C. The resulting supernatant was used in carrying out the reverse transcriptase assay.
10 μl of the said viral suspension was added to a solution of: 10 μl of buffer solution(250 mM tris-HCl, pH 7.5, 37.5 mM MgCl2, 0.25% triton X-100), 1.2 μl of 200 mM dithiothreitol, 5 μl of 10 μM oligo(dT)-poly(A)(Boeringer Manheim, 12-18 oligomer), 1 μl(1 μCi) of ^3 H-TTP(Thymidinetri-phosphate) and 23.6 μl of water; and the resulting mixture was placed at 37° C. After 1 hour, the mixture was poured onto a WHATMAN DEB1 filter and the filter was washed three times with 5 ml of 2×SSC buffer solution(17.53 g of sodium chloride, 8.82 g of sodium citrate, pH 7.0, 1 liter of water) for about 10 minutes each time and twice with 95% ethanol for 10 seconds. The filter was put onto aluminium foil and dried with an infra-red lamp. The amount of radioactivity was counted using a liquid scintillation counter. IC50 of each compound was determined by measuring the concentration of inhibitor that can reduce the activity of reverse transcriptase by 50%.

[1] = Cytotoxicity in H9 or Sup T1 cells (trypan blue dye exclusion); assay type: cell-based; conditions: human; concentration that causes death of cells by 50%; H9 or Sup T1 cells, 37° C; read-out: CT50 (the source's name)
Procedure: To determine the cytotoxicity of the compounds of the present invention, 0.1 μM to 100 μM of the novel compounds were added to H9 cell or Sup T1 cell and the mixture was cultured on a rpmi-1640 medium at 37° C. The medium was refreshed every 3 days and the extent of cell proliferation was observed using Hemacytometer according to the trypan blue dye exclusion technique which is well known in the art. CT50 (i.e., concentration that causes death of cells by 50%) was determined. For reference, AZT(Burrows-Wellcome), A-75925 (Abbott, C2 symmetric compound) and Ro-31-8959(F. Hofmann-La Roche) were used as control compounds.

[2] = HIV-1 protease 2.6 nM, pH 5.5, inhibition constant
[3] = HIV-1 protease 2.6 nM, pH 5.5, rate constant of covalent bond formation, read-out: kina (converted)
[4] = second order rate constant, HIV-1 protease, pH 5.5, read-out: kina /KI (converted)

| Structure (SMILES) | Ki (HIV-1 protease; [2]) | kinact (HIV-1 protease; [3]) | kinact/KI (HIV-1 protease; [4]) | IC50 (HIV-1) | CC50 [1] | Ki (HIV-1 protease) | kinact (HIV-1 protease; pH 5.5, read-out: kina) | kinact/KI (HIV-1 protease; pH 5.5, read-out: kina /KI) |
| --- | --- | --- | --- | --- | --- | --- | --- | --- |
| CC[C@H](C)[C@H](NC(=O)C[C@@H]1O[C@@H]1[C@H](Cc1ccccc1)NC(=O)[C@H](CC(N)=O)NC(=O)c1ccc2ccccc2n1)C(=O)NCc1ccccc1 [compound 8] | 0.06 µM | 0.002 s⁻¹ | 33300 M⁻¹ s⁻¹ | 7 µM | > 100 µM | – | – | – |
| C[C@@H](O)[C@H](NC(=O)OCc1ccccc1)C(=O)NC[C@@H]1O[C@@H]1[C@H](Cc1ccccc1)NC(=O)[C@@H](NC(=O)OCc1ccccc1)[C@@H](C)O [compound 73] | > 10 µM | – | – | 5 µM | > 100 µM | – | – | – |
| CC(C)[C@H](NC(=O)C[C@@H]1O[C@@H]1[C@H](Cc1ccccc1)NC(=O)[C@H](CC(N)=O)NC(=O)c1ccc2ccccc2n1)C(=O)NCc1ccccn1 [compound 19] | 0.081 µM | 0.00367 s⁻¹ | 45000 M⁻¹ s⁻¹ | 5 µM | > 100 µM | – | – | – |
| CC[C@H](C)[C@H](NC(=O)C[C@@H]1O[C@@H]1[C@H](Cc1ccccc1)NC(=O)[C@H](CC(N)=O)NC(=O)c1ccc2ccccc2n1)C(=O)N[C@H](C(=O)OC)C(C)C [compound 6] | 0.42 µM | 0.00217 s⁻¹ | 5170 M⁻¹ s⁻¹ | 5 µM | > 100 µM | – | – | – |
| COC(=O)C(CCC(N)=O)NC(=O)C[C@@H]1O[C@@H]1[C@H](Cc1ccccc1)NC(=O)[C@H](CC(N)=O)NC(=O)c1ccc2ccccc2n1 (stereo partly shown) [compound 12] | 0.37 µM | 0.005 s⁻¹ | 13500 M⁻¹ s⁻¹ | 7 µM | > 100 µM | – | – | – |
| CC(C)[C@H](NC(=O)OCc1ccccc1)C(=O)NC[C@@H]1O[C@@H]1[C@H](Cc1ccccc1)NC(=O)[C@@H](NC(=O)OCc1ccccc1)C(C)C [compound 71, 4S-1,4-bis[N-(N'-benzyloxycarbonyl-L-valinyl)amino]-5-phenyl-(2S,3R)-(Z)-epoxypentane] | – | – | – | 0.08 µM | > 100 µM | 0.00018 µM | 0.00233 s⁻¹ | 1.28e+06 M⁻¹ s⁻¹ |
| COC(=O)C(CCC(N)=O)NC(=O)C[C@@H]1O[C@@H]1[C@H](Cc1ccccc1)NC(=O)[C@H](CC(N)=O)NC(=O)OCc1ccccc1 (stereo partly shown) [compound 13] | 0.52 µM | 0.00717 s⁻¹ | 13800 M⁻¹ s⁻¹ | 10 µM | > 100 µM | – | – | – |
| COC(=O)C(Cc1ccccc1)NC(=O)C(CCC(N)=O)NC(=O)C[C@@H]1O[C@@H]1[C@H](Cc1ccccc1)NC(=O)[C@H](CC(N)=O)NC(=O)c1ccc2ccccc2n1 (stereo partly shown) [compound 14] | 0.35 µM | 0.00417 s⁻¹ | 11800 M⁻¹ s⁻¹ | 9 µM | > 100 µM | – | – | – |
| NC(=O)C[C@H](NC(=O)c1cnc2ccccc2n1)C(=O)N[C@@H](Cc1ccccc1)[C@H]1O[C@H]1CCc1ccccc1 [compound 63, 2-L-(N-quinoxaline-2-ylcarbonyl-L-asparaginyl)amino-(3R,4S)-epoxy-1,6-diphenylhexane] | 0.25 µM | 0.00483 s⁻¹ | 20000 M⁻¹ s⁻¹ | 1 to 2 µM | > 100 µM | – | – | – |
| CC(C)(C)OC(=O)NC[C@@H]1O[C@@H]1[C@H](Cc1ccccc1)NC(=O)[C@H](CC(N)=O)NC(=O)c1ccc2ccccc2n1 [compound 83] | 0.4 µM | 0.02 s⁻¹ | 50000 M⁻¹ s⁻¹ | 0.75 µM | > 10 µM | – | – | – |
| CC(C)[C@@H](CCc1ccccc1)NC(=O)C[C@@H]1O[C@@H]1[C@H](Cc1ccccc1)NC(=O)[C@H](CC(N)=O)NC(=O)c1ccc2ccccc2n1 [compound 49] | 0.8 µM | 0.03 s⁻¹ | 38300 M⁻¹ s⁻¹ | > 5 µM | > 100 µM | – | – | – |
| CC[C@H](C)[C@H](NC(=O)C[C@@H]1O[C@@H]1[C@H](Cc1ccccc1)NC(=O)[C@H](CC(N)=O)NC(=O)c1ccc2ccccc2n1)C(=O)NOC [compound 28, N-{5-L-[[N-(2-quinolinecarbonyl)-L-asparaginyl]amino]-(4R,3S)-epoxy-6-phenylhexanoyl}-L-isoleucinyl-(N-methoxy)-amine] | 0.015 µM | 0.00333 s⁻¹ | 217000 M⁻¹ s⁻¹ | 0.6 µM | > 100 µM | – | – | – |
